Experiment [1] deals with T1, GABAA receptor α1β2γ2 (Homo sapiens, UniProt P14867+P18507).
T1 construct: expressed in transfected cells; host or cells: Xenopus laevis oocytes injected with cRNA
The experiment in a line: Two-electrode voltage-clamp potentiation of GABA EC10 current in Xenopus oocytes, GABAA1. The class given is cell-based. The note with it: percentage potentiation of GABA EC10 current divided by that of diazepam. The procedure, abridged: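 Human GABAA receptors expressed in Xenopus oocytes by cRNA injection (α:β:γ molar ratio ~1:1:10 for α1β2γ2, 1:1:1 for α2β3γ2), recorded 2-10 days later by two-electrode voltage clamp at −60 mV in ND-96, pH 7.5. Modulator preapplied 30 s before GABA at per-oocyte EC10. Peak-current percent potentiation over GABA alone, normalised to diazepam.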
(In general: Two-electrode voltage clamp is typically applied to oocytes expressing channels or transporters.)

For experiment [2], the target named is T2, GABAA2 receptors (α2, β3, γ2 receptor subunits transfected into Sf9 cells) (Homo sapiens, UniProt P18507+P47869).
T2 construct: host or cells: Sf9 cells (membranes)
T2 sequence (P47869 29-451): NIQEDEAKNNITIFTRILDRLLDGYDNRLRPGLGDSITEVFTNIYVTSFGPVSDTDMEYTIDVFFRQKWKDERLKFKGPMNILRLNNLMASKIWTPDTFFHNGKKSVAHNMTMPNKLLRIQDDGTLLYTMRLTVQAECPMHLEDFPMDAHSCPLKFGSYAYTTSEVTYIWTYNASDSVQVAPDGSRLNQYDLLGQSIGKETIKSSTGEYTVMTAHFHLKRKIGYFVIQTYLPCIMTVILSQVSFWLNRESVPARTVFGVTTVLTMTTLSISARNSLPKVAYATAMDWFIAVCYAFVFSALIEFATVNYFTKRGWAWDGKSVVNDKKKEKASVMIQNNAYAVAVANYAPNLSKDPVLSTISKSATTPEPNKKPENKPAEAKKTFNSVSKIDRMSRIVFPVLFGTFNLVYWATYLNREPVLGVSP
T2 sequence (P28472 26-473 partner): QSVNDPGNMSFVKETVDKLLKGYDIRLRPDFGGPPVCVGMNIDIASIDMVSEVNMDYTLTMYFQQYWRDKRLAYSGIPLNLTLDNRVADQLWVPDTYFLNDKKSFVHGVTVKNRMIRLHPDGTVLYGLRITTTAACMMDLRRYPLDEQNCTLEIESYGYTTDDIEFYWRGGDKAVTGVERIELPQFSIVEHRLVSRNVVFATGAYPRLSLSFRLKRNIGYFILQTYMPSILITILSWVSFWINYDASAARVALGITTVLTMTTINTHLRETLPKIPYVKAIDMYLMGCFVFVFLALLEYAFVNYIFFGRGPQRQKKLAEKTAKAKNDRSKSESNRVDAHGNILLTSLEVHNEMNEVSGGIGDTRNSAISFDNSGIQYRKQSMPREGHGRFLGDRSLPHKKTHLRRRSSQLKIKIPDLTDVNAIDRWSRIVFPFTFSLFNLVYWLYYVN
T2 sequence (P18507 40-475): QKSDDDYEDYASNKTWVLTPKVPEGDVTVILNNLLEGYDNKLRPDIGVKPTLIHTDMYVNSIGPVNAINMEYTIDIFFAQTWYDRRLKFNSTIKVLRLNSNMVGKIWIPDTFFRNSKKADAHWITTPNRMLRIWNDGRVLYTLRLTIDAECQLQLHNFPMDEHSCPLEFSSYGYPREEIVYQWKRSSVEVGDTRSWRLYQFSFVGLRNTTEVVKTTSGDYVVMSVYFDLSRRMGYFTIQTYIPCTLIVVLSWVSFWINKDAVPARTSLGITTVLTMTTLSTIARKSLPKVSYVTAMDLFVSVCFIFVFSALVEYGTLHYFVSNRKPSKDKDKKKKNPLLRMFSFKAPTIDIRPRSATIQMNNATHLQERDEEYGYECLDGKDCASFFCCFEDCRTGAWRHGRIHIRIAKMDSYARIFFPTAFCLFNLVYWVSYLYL
The experiment can be described thus: GABAA2 Binding Method ([3H]-Flunitrazepam displacement). The note with it: [3H]-Flunitrazepam ~2 nM, α2β3γ2 Sf9 membranes, 1 hr at 4° C. In short, it runs like this: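 Membranes from Sf9 cells expressing α2β3γ2 GABAA receptors incubated with ~2 nM (final) [3H]-flunitrazepam and test compound 1 h at 4 °C, then filtered on GF/B plates with cold-buffer washes. Flumazenil-defined controls; percent of control, IC50 and Ki calculated.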

T1 sequence (P14867 28-456): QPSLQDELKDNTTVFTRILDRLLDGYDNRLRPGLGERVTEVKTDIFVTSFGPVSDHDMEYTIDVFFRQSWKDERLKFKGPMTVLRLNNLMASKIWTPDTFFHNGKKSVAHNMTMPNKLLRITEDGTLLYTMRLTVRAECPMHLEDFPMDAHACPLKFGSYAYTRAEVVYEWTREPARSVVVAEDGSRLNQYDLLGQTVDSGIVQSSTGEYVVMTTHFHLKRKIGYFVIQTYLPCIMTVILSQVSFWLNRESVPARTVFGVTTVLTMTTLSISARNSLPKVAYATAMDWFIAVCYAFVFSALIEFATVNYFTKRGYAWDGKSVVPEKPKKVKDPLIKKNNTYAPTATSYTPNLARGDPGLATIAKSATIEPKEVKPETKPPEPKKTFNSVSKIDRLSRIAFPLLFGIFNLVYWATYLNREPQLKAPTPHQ
T1 sequence (P47870 25-512 partner limits assumed): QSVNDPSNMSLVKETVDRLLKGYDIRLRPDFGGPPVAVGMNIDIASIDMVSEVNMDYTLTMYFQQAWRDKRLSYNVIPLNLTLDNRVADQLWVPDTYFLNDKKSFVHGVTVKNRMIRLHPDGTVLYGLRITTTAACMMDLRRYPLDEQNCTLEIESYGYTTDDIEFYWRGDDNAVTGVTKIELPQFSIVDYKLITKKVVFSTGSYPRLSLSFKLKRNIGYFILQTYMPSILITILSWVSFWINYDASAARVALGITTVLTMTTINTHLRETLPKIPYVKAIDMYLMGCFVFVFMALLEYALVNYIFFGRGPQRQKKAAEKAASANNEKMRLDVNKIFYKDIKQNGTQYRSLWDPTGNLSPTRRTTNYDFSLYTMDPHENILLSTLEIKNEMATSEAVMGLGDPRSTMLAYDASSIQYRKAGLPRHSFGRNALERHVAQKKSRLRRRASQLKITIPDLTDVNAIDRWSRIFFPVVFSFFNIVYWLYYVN
T1 sequence (P18507 40-475): as the sequence (P18507 40-475) above

For the compound `Cc1nc(Cl)ccc1-c1cccc2c(N)c3c(nc12)CN(C1CC1)C3=O` [9-amino-5-(6-chloro-2-methylpyridin-3-yl)-2-cyclopropyl-2,3-dihydro-1H-pyrrolo[3,4-b]quinolin-1-one], in experiment [1], the “Relative Potentiation for GABAA1” value was 0.16. Besides, the Ki – broadly, the equilibrium dissociation constant of an inhibitor or competing ligand from its target – in experiment [2] came to 0.028 µM.
Regarding `COc1ccc(CN2Cc3nc4c(-c5ccc(OC)cc5OC)cccc4c(N)c3C2=O)cc1` [9-amino-5-(2,4-dimethoxyphenyl)-2-(4-methoxybenzyl)-2,3-dihydro-1H-pyrrolo[3,4-b]quinolin-1-one], the “Relative Potentiation for GABAA1” value in experiment [1] was found to be 0.25. The compound also had a Ki in experiment [2] of 0.0321 µM.
The corresponding values for `CCCN1Cc2nc3c(-c4cc(F)ncc4OC)cccc3c(N)c2C1=O` [9-amino-5-(2-fluoro-5-methoxypyridin-4-yl)-2-propyl-2,3-dihydro-1H-pyrrolo[3,4-b]quinolin-1-one] are 0.6 and 0.00808 µM.
With `COc1ccncc1-c1cccc2c(N)c3c(nc12)CN(C1CC1)C3=O` [9-amino-2-cyclopropyl-5-(4-methoxypyridin-3-yl)-2,3-dihydro-1H-pyrrolo[3,4-b]quinolin-1-one], the “Relative Potentiation for GABAA1” value in experiment [1] came to 0.21. In experiment [2], this compound displayed a Ki of 0.0081 µM.
For `CCCN1Cc2nc3c(-c4ccc5ncccc5c4)cccc3c(N)c2C1=O` [9-amino-2-propyl-5-(quinolin-6-yl)-2,3-dihydro-1H-pyrrolo[3,4-b]quinolin-1-one], the “Relative Potentiation for GABAA1” value in experiment [1] is on record as 0.29. Also, the inhibition constant Ki in experiment [2] amounted to 0.0195 µM.
In the same order, the values of `Nc1c2c(nc3c(-c4ccccc4C(F)(F)F)cccc13)CN(C1CC1)C2=O` [9-amino-2-cyclopropyl-5-(2-(trifluoromethyl)phenyl)-2,3-dihydro-1H-pyrrolo[3,4-b]quinolin-1-one] are 0.48 and 0.0227 µM.
`CCCN1Cc2nc3c(-c4cnc(OC)c(C)c4)cccc3c(N)c2C1=O` [9-amino-5-(6-methoxy-5-methylpyridin-3-yl)-2-propyl-2,3-dihydro-1H-pyrrolo[3,4-b]quinolin-1-one]: the “Relative Potentiation for GABAA1” value in experiment [1] turned out to be 0.32. In experiment [2], the Ki was found to be 0.0365 µM.
The corresponding values for `CCCN1Cc2nc3c(-c4ccoc4)cccc3c(N)c2C1=O` [9-amino-5-(furan-3-yl)-2-propyl-2,3-dihydro-1H-pyrrolo[3,4-b]quinolin-1-one] are 0.13 and 0.0382 µM.
Consider `CCCN1Cc2nc3c(-c4cccc(N(C)C)c4)cccc3c(N)c2C1=O` [9-amino-5-(3-(dimethylamino)phenyl)-2-propyl-2,3-dihydro-1H-pyrrolo[3,4-b]quinolin-1-one], for which the “Relative Potentiation for GABAA1” value in experiment [1] came to 0.27. In addition, the affinity in experiment [2] corresponds to a Ki of 0.0374 µM.
In the case of `CCCN1Cc2nc3c(-c4ccc(OC)c(OC)c4)cccc3c(N)c2C1=O` [9-amino-5-(3,4-dimethoxyphenyl)-2-propyl-2,3-dihydro-1H-pyrrolo[3,4-b]quinolin-1-one], in experiment [1], the “Relative Potentiation for GABAA1” value is 1.1. The same compound registered a Ki in experiment [2] of 0.0123 µM.
As to `COc1ccc(-c2cccc3c(N)c4c(nc23)CN(Cc2ccc(OC)c(OC)c2)C4=O)c(C)n1` [9-amino-2-(3,4-dimethoxybenzyl)-5-(6-methoxy-2-methylpyridin-3-yl)-2,3-dihydro-1H-pyrrolo[3,4-b]quinolin-1-one], the “Relative Potentiation for GABAA1” value in experiment [1] is 0.26. Further, in experiment [2], the Ki was found to be 0.0047 µM.
As to `CCCCN1Cc2nc3c(-c4cccnc4OC)cccc3c(N)c2C1=O` [9-amino-2-butyl-5-(2-methoxypyridin-3-yl)-2,3-dihydro-1H-pyrrolo[3,4-b]quinolin-1-one], the “Relative Potentiation for GABAA1” value in experiment [1] is listed as 0.5. The compound further yielded a Ki in experiment [2] of 0.0197 µM.
The corresponding values for `CCCN1Cc2nc3c(-c4cc(C)ccc4F)cccc3c(N)c2C1=O` [9-amino-5-(2-fluoro-5-methylphenyl)-2-propyl-2,3-dihydro-1H-pyrrolo[3,4-b]quinolin-1-one] are 0.27 and 0.00677 µM.
In the same order, the values of `CCCN1Cc2nc3c(-c4ccsc4)cccc3c(N)c2C1=O` [9-amino-2-propyl-5-(thiophen-3-yl)-2,3-dihydro-1H-pyrrolo[3,4-b]quinolin-1-one] are 0.19 and 0.0308 µM.
The corresponding values for `CCCN1Cc2nc3c(-c4ccc5[nH]ccc5c4)cccc3c(N)c2C1=O` [9-amino-5-(1H-indol-5-yl)-2-propyl-2,3-dihydro-1H-pyrrolo[3,4-b]quinolin-1-one] are 0.55 and 0.0268 µM.
Consider `CCCN1Cc2nc3c(-c4cnc(OC)nc4OC)c(F)ccc3c(N)c2C1=O` [9-amino-5-(2,4-dimethoxypyrimidin-5-yl)-6-fluoro-2-propyl-2,3-dihydro-1H-pyrrolo[3,4-b]quinolin-1-one], for which the “Relative Potentiation for GABAA1” value in experiment [1] is recorded as 0.22. This compound came in with a Ki in experiment [2] of 0.00889 µM.
On to `CCCN1Cc2nc3c(-c4ccc(OC)cc4F)cccc3c(N)c2C1=O` [9-amino-5-(2-fluoro-4-methoxyphenyl)-2-propyl-2,3-dihydro-1H-pyrrolo[3,4-b]quinolin-1-one], for which, in experiment [1], the “Relative Potentiation for GABAA1” value was found to be 0.12. The compound further registered a Ki in experiment [2] of 0.0128 µM.
The corresponding values for `COc1ccc(CN2Cc3nc4c(-c5cccc(OC)c5F)cccc4c(N)c3C2=O)cc1` [9-amino-5-(2-fluoro-3-methoxyphenyl)-2-(4-methoxybenzyl)-2,3-dihydro-1H-pyrrolo[3,4-b]quinolin-1-one] are 0.36 and 0.00803 µM.
Turning to `COc1ccc(CN2Cc3nc4c(-c5cc(C)ccc5OC)cccc4c(N)c3C2=O)cc1OC` [9-amino-2-(3,4-dimethoxybenzyl)-5-(2-methoxy-5-methylphenyl)-2,3-dihydro-1H-pyrrolo[3,4-b]quinolin-1-one], in experiment [1], the “Relative Potentiation for GABAA1” value came to 0.3. This compound also came in with a Ki in experiment [2] of 0.00918 µM.
In the same order, the values of `CCCN1Cc2nc3c(-c4ccc(OC)nc4C)cccc3c(N)c2C1=O` [9-amino-5-(6-methoxy-2-methylpyridin-3-yl)-2-propyl-2,3-dihydro-1H-pyrrolo[3,4-b]quinolin-1-one] are 0.29 and 0.0164 µM.
As for `COc1ccc(CN2Cc3nc4c(-c5cc(F)c(OC)cc5F)cccc4c(N)c3C2=O)cc1` [9-amino-5-(2,5-difluoro-4-methoxyphenyl)-2-(4-methoxybenzyl)-2,3-dihydro-1H-pyrrolo[3,4-b]quinolin-1-one], the “Relative Potentiation for GABAA1” value in experiment [1] was found to be 0.29. In experiment [2], this compound displayed a Ki of 0.0484 µM.
On to `CCCN1Cc2nc3c(-c4ccc(OC)cc4C(F)(F)F)cccc3c(N)c2C1=O` [9-amino-5-(4-methoxy-2-(trifluoromethyl)phenyl)-2-propyl-2,3-dihydro-1H-pyrrolo[3,4-b]quinolin-1-one], for which, in experiment [1], the “Relative Potentiation for GABAA1” value is on record as 0.25. The same compound registered a Ki in experiment [2] of 0.0104 µM.
The corresponding values for `COc1ncc(-c2cccc3c(N)c4c(nc23)CN(Cc2ccc3c(c2)OCO3)C4=O)c(OC)n1` [9-amino-2-(benzo[d][1,3]dioxol-5-ylmethyl)-5-(2,4-dimethoxypyrimidin-5-yl)-2,3-dihydro-1H-pyrrolo[3,4-b]quinolin-1-one] are 0.4 and 0.0302 µM.
The corresponding values for `CCCN1Cc2nc3c(-c4cc(C)cnc4F)cccc3c(N)c2C1=O` [9-amino-5-(2-fluoro-5-methylpyridin-3-yl)-2-propyl-2,3-dihydro-1H-pyrrolo[3,4-b]quinolin-1-one] are 0.33 and 0.00755 µM.

(Values after US20080318943A1, “Compounds and Uses Thereof - 848” (ASTRAZENECA AB, priority 2007, published 2008).)
